The values below come from patent US9738656B2, “Pyranodipyridine compound” (Eisai R&D Management Co., Ltd., priority 2015, dated 2017).

Data set [1] has as its system AMPA receptor. The data set is described as follows: AMPA-induced intraneuronal calcium entry-suppressing action (primary culture of embryonic rat cerebral cortex neurons, Fura 2-AM). The data set is classed as cell-based. Conditions: AMPA stimulation, intracellular calcium increase, read-out: IC50 for AMPA inhibition. The source says: The present inventors conducted the following tests, in order to confirm the effects of the compounds of the present invention. With regard to the AMPA receptor inhibitory action of the compounds, AMPA-induced intraneuronal calcium entry-suppressing action was examined using a primary culture system of embryonic rat cerebral cortex neurons. With regard to the anticonvulsant action of the compounds, 6 Hz (44 mA) stimulation-induced convulsions known as a treatment-resistant convulsion model were used. AMPA inhibitor-induced central nervous system depressant action such as loss of coordination was evaluated using a rotarod performance test.
AMPA-Induced Intraneuronal Calcium Entry-Suppressing Action
<Culture conditions> Whole fetuses were removed from the uteri of Wistar rats at embryonic day 18 (Charles River Japan) anesthetized with isoflurane. Whole brains were removed from the whole fetuses, and the cerebral cortex was separated in Leibovitz's L-15 medium or Hanks balanced salt solution containing 20% fetal bovine serum. The resulting material was treated with trypsin/DNase solution at 37° C. for 45 to 60 minutes. After the serum was added to stop the trypsin reaction, the resulting material was centrifuged at 1200 to 1500 rpm for 3 to 5 minutes. After the supernatant was removed, Neurobasal medium (containing 2% B-27 supplement and the like; hereinafter “Neurobasal medium”) was added, and the cells were uniformly dispersed by gently pipetting. The cell suspension was slightly stirred, and then filtered through a nylon mesh filter. Viable cells were counted using a hemocytometer, and diluted with Neurobasal medium to 8 to 10×10^5 cells/mL. The cells were seeded into 96 well plates at 100 μL per well and cultured in a CO2 incubator (5% CO2, 37° C.). The medium was replaced after 24 hours, and neurons cultured for 7 to 21 days were used.
On the day of the assay, the medium was removed and replaced with a calcium measurement solution containing 5 to 10 μmol/L of Fura 2-AM (140 mmol/L sodium chloride, 5 mmol/L potassium chloride, 2 mmol/L magnesium chloride, 3 mmol/L calcium chloride, 24 mmol/L D(+)-glucose, 10 mmol/L HEPES, 1 μmol/L MK-801, pH 7.4), and the cells were treated in a CO2 incubator (5% CO2, 37° C.) for 1 to 2 hours. The calcium measurement solution containing the Fura-2 AM solution was subsequently removed, and the neurons in each well were washed twice with the calcium measurement solution for each well, and then 50 μL of the calcium measurement solution was added to each well. Subsequently, 50 μL of a test compound or medium prepared at a concentration 3-fold higher than the final concentration was added, and the cells were pre-treated for about 15 minutes. The plates were subsequently placed on the Fluorescence Drug Screening System 6000 (Hamamatsu Photonics K.K.). The cells were stimulated by adding to each well 50 μL of an AMPA stimulating solution prepared to 3.3 μmol/L with the calcium measurement solution. Changes in calcium concentration were measured as the changes in fluorescence intensity at excitation wavelengths of 340 nm and 380 nm (measurement wavelength: 540 nm). The rate of change of the intracellular calcium concentration was calculated according to the following equation: Rate of increase of the intracellular calcium concentration (% control)=(Tpost−Tpre)/(Cpost−Cpre)×100
wherein Tpost: the proportion of fluorescence of sample wells after stimulation; Tpro: the proportion of fluorescence of sample wells before stimulation; Cpost: the proportion of fluorescence of control wells after stimulation; and Cpre: the proportion of fluorescence of control wells before stimulation.
The IC50 value of the test compound for AMPA inhibition was determined from the rates of increase of the intracellular calcium concentration at various concentrations.
A general note: Calcium flux is commonly read through the fluorescence of an indicator in the cells.

Data set [2] relates to male ddY mice. The data set is described as follows: Rotarod performance test-1. The data set is classed as in vivo. Conditions: oral, 25 minutes after administration, dose at which time of fall is reduced to 50% of medium control. On the procedure:
(§1) With regard to the AMPA receptor inhibitory action of the compounds, AMPA-induced intraneuronal calcium entry-suppressing action was examined using a primary culture system of embryonic rat cerebral cortex neurons. […] AMPA inhibitor-induced central nervous system depressant action such as loss of coordination was evaluated using a rotarod performance test.
Rotarod Performance Test-1
(§2) A rotarod (MK-660C from Muromachi Kikai Co., Ltd.) was used for the measurement. The rod (bar) was controlled to be gradually accelerated from its stationary state to a speed of 40 rotations/minute after 180 seconds. As the animals, 5 or 6-week-old male ddY mice (Japan SLC, Inc.) were used. On the day on which the test was performed, the mice were trained under the above-described measurement conditions, and mice that were able to ride on the rod for 1 minute or longer with good reproducibility were selected and subjected to the test.
Each of the compounds was dissolved in a medium (a solution prepared by adding DMSO to a 0.5% methylcellulose solution to a final concentration of 10%. As required, 0.5 to 5% of 1 mol/L hydrochloric acid and 5% Cremophor™ were added), and then orally administered to the mice in optimum four doses between 0.5 to 10 mg/kg. As the control, only the medium was orally administered. After a lapse of 25 minutes from the oral administration of each compound, the mice were subjected to the rotarod performance test. Five to twenty-five mice were used for each compound group.

The test system of data set [3] is male ddY mice. The data set is described as follows: Murine 6 Hz convulsion models (6 Hz, 44 mA corneal stimulation). The data set is classed as in vivo. Conditions: for ED50: Mus musculus, 25 min; for Therapeutic Index: TD50/ED50 (rotarod test-1 / 6 Hz convulsion model). The method, then: as §1
Immediately after the rotarod performance test-1 was completed, the cornea was stimulated by passing an electrical current (6 Hz, 44 mA, 0.2-millisecond pulse, for 3 seconds) from a copper electrode moistened with physiological saline, and the presence or absence of the development of a seizure was observed. The seizure was determined by the development of akinesia, jaw and forelimb clonus, whisker tremors, and Straub tail.
Further, for the purpose of evaluating the safety margin of each of the compounds of the present invention, the therapeutic index (TD50/ED50) was calculated by comparing the seizure inhibitory action (ED50) in the 6 Hz convulsion models and the neurotoxic action (TD50) in the rotarod performance test-1.
On the technique in general: Falling from the rotarod earlier than controls is read as motor impairment.

Data set [4] concerns male ddY mice. The data set is described as follows: Rotarod performance test-2. The data set is classed as in vivo. Conditions: for Time of Fall: mice, oral at the ED50 dose of the 6 Hz model, 25 minutes after administration; for Ratio Relative to the Control Compound: time of fall relative to control compound. The method, then: Rotarod Performance Test-2
as §2
As the control, only the medium was orally administered. After a lapse of 25 minutes from the oral administration of each compound, the mice were subjected to the rotarod performance test. Five or six mice were used for each compound group. For each compound, the time until the mice fell from the rotarod was measured.

Setting [5] is: mice, 6 Hz 44 mA stimulation-induced seizure, oral, after rotarod test-1 (25 minutes after administration), read-out: ED50.

Structures are written as SMILES. Like-named read-outs stand apart in the source and are kept apart here. A value given as a limit tells only on which side of the number the result lay.

On to `N#Cc1ccccc1-n1nc2c(c(-c3cccnc3)c1=O)COc1ccccc1-2` [Control Compound, 2-(3-oxo-4-(pyridin-3-yl)-3,5-dihydro-2H-chromeno[4,3-c]pyridazin-2-yl)benzonitrile, reference compound], for which, in data set [1], the IC50 is 20 nM. Also, the TD50 in data set [2] is on record as 2.73 mg/kg, p.o. The compound further registered an ED50 in data set [3] (po) of 3.96 mg/kg. Besides, in data set [3] (mice), the “Therapeutic Index” value came to 0.69. The “Time of Fall” value in data set [4] (Table 3) was 12.2 s; in data set [4] (Table 4), 14.3 s. Also, the “Ratio Relative to the Control Compound” value in data set [4] (Table 3) and in data set [4] (Table 4) was 1.0 in each case.

For the compound `N#Cc1c(F)cccc1-c1cc2c(n(-c3cncc(Cl)c3)c1=O)COc1cccnc1-2` [Example 20, 2-(7-(5-chloropyridin-3-yl)-8-oxo-7,8-dihydro-6H-pyrano[3,2-b:5,4-b′]dipyridin-9-yl)-6-fluorobenzonitrile], the IC50 in data set [1] is 8.26 nM. Moreover, the TD50 in data set [2] was 4.74 mg/kg, p.o. In addition, the ED50 in data set [3] (po) worked out at 2.47 mg/kg. The “Therapeutic Index” value in data set [3] (mice) was 1.91. In data set [4] (Table 4), the “Time of Fall” value is 71.3 s and the “Ratio Relative to the Control Compound” value was 5.0.

With `N#Cc1ncccc1-c1cc2c(n(-c3ccccc3F)c1=O)COc1cccnc1-2` [Example 12, 3-(7-(2-fluorophenyl)-8-oxo-7,8-dihydro-6H-pyrano[3,2-b:5,4-b′]dipyridin-9-yl)picolinonitrile], the IC50 in data set [1] was determined as 33 nM. Besides, the TD50 in data set [2] is given as 3.06 mg/kg, p.o. The same compound displayed an ED50 in data set [3] (po) of 1.66 mg/kg. Also, the “Therapeutic Index” value in data set [3] (mice) stood at 1.84. In data set [4] (Table 3), the “Time of Fall” value was 80.5 s and the “Ratio Relative to the Control Compound” value came to 6.6.

Regarding `N#Cc1c(F)cccc1-c1cc2c(n(-c3cncc(F)c3)c1=O)COc1cccnc1-2` [Example 15, 2-fluoro-6-(7-(5-fluoropyridin-3-yl)-8-oxo-7,8-dihydro-6H-pyrano[3,2-b:5,4-b′]dipyridin-9-yl)benzonitrile], in data set [1], the IC50 turned out to be 8.2 nM. The TD50 in data set [2] is 2.67 mg/kg, p.o. In data set [3] (po), this compound registered an ED50 of 1.41 mg/kg. Moreover, the “Therapeutic Index” value in data set [3] (mice) was 1.89. In data set [4] (Table 4), the “Time of Fall” value amounted to 100.0 s and the “Ratio Relative to the Control Compound” value amounted to 7.0.

As for `O=c1c(-c2ccccc2F)cc2c(n1-c1ccccc1)COc1cccnc1-2` [Example 9, 9-(2-fluorophenyl)-7-phenyl-6H-pyrano[3,2-b:5,4-b′]dipyridin-8(7H)-one], the IC50 in data set [1] was found to be 50.9 nM. In data set [2], the TD50 is 9.55 mg/kg, p.o. Further, the ED50 in data set [3] (setting [5]) was 3.38 mg/kg. Further, in data set [3] (mice), the “Therapeutic Index” value worked out at 2.83. Moreover, in data set [4] (Table 3), the “Time of Fall” value stood at 109.7 s and the “Ratio Relative to the Control Compound” value came to 9.0.

In the case of `Cc1c(F)cccc1-c1cc2c(n(-c3cccnc3)c1=O)COc1cccnc1-2` [Example 22, 9-(3-fluoro-2-methylphenyl)-7-(pyridin-3-yl)-6H-pyrano[3,2-b:5,4-b′]dipyridin-8(7H)-one], in data set [1], the IC50 turned out to be 53.3 nM. For the same compound, in data set [2], the TD50 is 6.19 mg/kg, p.o. Also, the ED50 in data set [3] (setting [5]) was found to be 3.23 mg/kg. For the same compound, the “Therapeutic Index” value in data set [3] (mice) amounted to 1.91. Further, in data set [4] (Table 4), the “Time of Fall” value was 102.8 s and the “Ratio Relative to the Control Compound” value was determined as 7.2.

With `O=c1c(-c2c(F)c(F)cc(F)c2F)cc2c(n1-c1cccnc1)COc1cccnc1-2` [Example 6, 7-(pyridin-3-yl)-9-(2,3,5,6-tetrafluorophenyl)-6H-pyrano[3,2-b:5,4-b′]dipyridin-8(7H)-one], the IC50 in data set [1] turned out to be 34.6 nM. Besides, the TD50 in data set [2] was 4.44 mg/kg, p.o. Moreover, it took a dose of 2.86 mg/kg to reach the 50% effect level in data set [3] (po) (ED50). In data set [3] (mice), the “Therapeutic Index” value turned out to be 1.55. Further, in data set [4] (Table 3), the “Time of Fall” value is 68.0 s and the “Ratio Relative to the Control Compound” value was 5.6.

As to `N#Cc1ccccc1-c1cc2c(n(-c3ccc(F)cc3)c1=O)COc1cccnc1-2` [Example 10, 2-(7-(4-fluorophenyl)-8-oxo-7,8-dihydro-6H-pyrano[3,2-b:5,4-b′]dipyridin-9-yl)benzonitrile], the IC50 in data set [1] was determined as 18.8 nM. For the same compound, the TD50 in data set [2] was 3.37 mg/kg, p.o. For the same compound, the ED50 in data set [3] (po) was 2.08 mg/kg. In addition, the “Therapeutic Index” value in data set [3] (mice) turned out to be 1.62. Also, in data set [4] (Table 3), the “Time of Fall” value was determined as 84.2 s and the “Ratio Relative to the Control Compound” value worked out at 6.9.

As to `O=c1c(-c2cccc(F)c2Cl)cc2c(n1-c1cncc(F)c1)COc1cccnc1-2` [Example 17, 9-(2-chloro-3-fluorophenyl)-7-(5-fluoropyridin-3-yl)-6H-pyrano[3,2-b:5,4-b′]dipyridin-8(7H)-one], the IC50 in data set [1] was determined as 17.7 nM. For the same compound, in data set [2], the TD50 was 4.27 mg/kg, p.o. This compound yielded a 50% effective dose (ED50) in data set [3] (po) of 2 mg/kg. In data set [3] (mice), the “Therapeutic Index” value worked out at 2.14. In addition, in data set [4] (Table 4), the “Time of Fall” value was 147.0 s and the “Ratio Relative to the Control Compound” value was 10.3.

Consider `N#Cc1ncccc1-c1cc2c(n(-c3ccsc3)c1=O)COc1cccnc1-2` [Example 7, 3-(8-oxo-7-(thiophen-3-yl)-7,8-dihydro-6H-pyrano[3,2-b:5,4-b′]dipyridin-9-yl)picolinonitrile], for which the IC50 in data set [1] is 15.5 nM. The TD50 in data set [2] is given as 1.70 mg/kg, p.o. The same compound had an ED50 in data set [3] (po) of 0.97 mg/kg. The “Therapeutic Index” value in data set [3] (mice) was determined as 1.75. Besides, in data set [4] (Table 3), the “Time of Fall” value is 71.7 s and the “Ratio Relative to the Control Compound” value is 5.9.

Regarding `N#Cc1c(F)cccc1-c1cc2c(n(-c3cccnc3)c1=O)COc1cccc(F)c1-2` [Example 16, 2-fluoro-6-(10-fluoro-3-oxo-4-(pyridin-3-yl)-4,5-dihydro-3H-chromeno[3,4-b]pyridin-2-yl)benzonitrile], the IC50 in data set [1] was less than 8 nM. The TD50 in data set [2] is recorded as 1.73 mg/kg, p.o. Further, the ED50 in data set [3] (po) is 1.05 mg/kg. In data set [3] (mice), the “Therapeutic Index” value stood at 1.65. Besides, in data set [4] (Table 4), the “Time of Fall” value was found to be 92.8 s and the “Ratio Relative to the Control Compound” value was determined as 6.5.

One may read the IC50 as the concentration that inhibits the measured activity by half. In general, ED50 refers to the midpoint of the dose-response relation.
